# From patent US20250275995A1, “NICOTINAMIDE RIBOSIDE DOSAGE REGIMEN FOR TREATING PARKINSON'S DISEASE” (VESTLANDETS INNOVASJONSSELSKAP AS (VIS), priority 2022, published 2025)
# Where “and” joins values, the source holds several entries; their conditions need not be identical. Equal values may be shown once.
# How the values were obtained:
# Format in all cases: in vivo, human
# brain NAD levels = test: NAD-brain pharmacokinetic study: brain NAD by 31P-MRS; details: 1200 mg daily for 8 days
# Method: • At screening, participants are assessed for eligibility, inclusion/exclusion criteria, medical history and concomitant medication is recorded, and informed consent signed. • The NAD-brain study performs a parallel assessment of NAD replenishment therapy pharmacokinetics in the blood and brain of healthy human subjects and subjects with Parkinson's disease (PD). Healthy individuals and individuals with PD undergo repeated blood sampling and 31P-MRS brain scans during two 20-day periods, each of which starts with 8 days of daily intake of NR 600 mg×2, or NMN 600 mg×2 (Table 10). • For each 20-day period the testing (i.e., scanning and blood draw) frequency is shown in Table 10, below. The two 20-day periods are 14 days apart to allow for washout of the previous compound. This is a pharmacokinetic (PK) study where 6 healthy individuals (3 male and 3 female): • 1) Received NR 1200 mg daily (600 mg×2) for 8 days, followed by an additional 11 days follow up, while undergoing serial blood and brain NAD-measurement. • 2) Received NMN 1200 mg daily (600 mg×2) for 8 days, followed by an additional 11 days follow up, while undergoing serial blood and brain NAD-measurement. The individuals were mixed, so that in stage-1 three individuals received NR and three individuals received NMN, then in stage-2 they switched (Cross-over design). There were almost three weeks (20 days) of washout between the last dose of the first compound, and before the first dose of the second compounds. In the brain, total NAD (NAD^++NADH) levels were measured by 31P-MRS as previously described^19. […] 19 Brakedal, B. et al. The […] study: A randomized phase I trial of nicotinamide riboside supplementation in Parkinson's disease. Cell Metab 34, 396-407.e6 (2022).
# individuals with PD = test: NR-SAFE: vital signs, body metrics, ECG
# Method: (§1) At screening for trial entry, candidates underwent physical and neurological examination. Enrolled participants were assessed by physical visits by a movement disorder specialist at baseline (visit 1, V1), day 7 (V4), day 14 (V5), day 21 (V6) and day 28 (V7). At baseline and day 28 participants underwent additional assessment with the Movement Disorder Society Unified Parkinson's disease Rating Scale section I-IV (MDS-UPDRS). At all physical visits an electrocardiogram (ECG), vital parameters (blood pressure, pulse, weight, height) and blood samples were obtained. Additional blood samples were taken on day 3 (V2) and day 5 (V3) to assess safety. The participants were interviewed by telephone consultation by a study nurse on day 3 and day 35 to screen for additional adverse events. Participants were instructed to take their anti-Parkinson drugs as they normally would and no changes were made to anti-Parkinson drug treatment during the trial. Adverse events (AEs) were recorded by the investigating physician. These were then classified by severity according to the Common Terminology Criteria for Adverse Events v5.0 (CTCAE)^13 as either mild (1), moderate (2), severe (3), life-threatening (4) or death (5). The AE relation to the study drug was scored as unrelated (1), unlikely (2), possible (3), probable (4) or definitely (5). 13 Freites-Martinez, A., Santana, N., Arias-Santiago, S. & Viera, A. Using the Common Terminology Criteria for Adverse Events (CTCAE—Version 5.0) to Evaluate the Severity of Adverse Events of Anticancer Therapies. Actas Dermosifiliogr (Engl Ed) 112, 90-92 (2021).
# Parkinson's Disease (PD) = test: NR-SAFE: MDS-UPDRS and Hoehn and Yahr scores
# Method: as §1
# [1] = system: cerebral metabolic activity; test: NADPARK: FDG-PET, NR-related metabolic pattern (NRRP)
# Source text: This novel NR-related metabolic pattern (NRRP) was characterized by multiple regional metabolic changes, including bilateral metabolic reductions in the caudate and putamen, extending into the adjacent globus pallidus, and in the thalamus (FIG. 1D-E). […] The NRRP expression can be derived from the FDG-PET data, as previously described (Cell Metab. 2022 Mar. 1; 34(3):396-407.e6). For example, a NR-related metabolic pattern (NRRP) can be identified by using ordinal trends/canonical variates analysis (OrT/CVA), a supervised form of principal component analysis (PCA) (Habeck et al., (2005), Neural Computation 17, 1602-1645). […] Likewise, the reliability of the voxel loadings (i.e., region weights) on the resulting network topography can be assessed using bootstrap resampling procedures (Habeck and Stern (2010), Cell Biochemistry and Biophysics 58, 53-67; Mure et al. (2011), Neuroimage 54, 1244-1253). The analysis can be restricted to the top PC patterns, accounting for greater than 75% of the subject×voxel variance in the longitudinal data. Expression values for these PCs can then be entered singly and in all possible linear combinations to identify significant monotonic trends in the individual subject data, i.e., consistent increases (or decreases) in pattern expression across the subjects with few if any violations (p<0.05; permutation test, 1000 iterations). The resulting coefficients are applied to the corresponding PC patterns to construct the NR-related topography. […] The analysis can be performed within a population or the individual subject's gray matter brain mask defined by the FDG-PET scans, e.g., as outlined in Table 1.
# [2] = V1 (baseline), NR 3000 mg daily group, ±sd
# [3] = V7 (day 28), NR 3000 mg daily, ±sd
smiles,measurement,setting,value
"NC(=O)c1ccc[n+]([C@@H]2O[C@H](CO)[C@@H](O)[C@H]2O)c1 [NR, nicotinamide riboside]","brain NAD levels, baseline vs day of maximal blood NAD","brain NAD levels; 31P-MRS, day 9 (NR), day 8 (NMN)",significant increase in brain NAD levels
same,NAD levels at day 19,brain NAD levels; 11 days after last dose,remained elevated
same,Electrocardiography (ECG),"individuals with PD; NR 3000 mg daily, 4 weeks",no changes of clinical significance
same,"changes in systolic or diastolic blood pressure, pulse or weight between visit 1 and visit 7","individuals with PD; NR 3000 mg daily, 4 weeks","No significant changes in systolic or diastolic blood pressure, pulse or weight"
same,patients who developed asymptomatic bradycardia,"individuals with PD; NR group, 3000 mg daily, 4 weeks",Two
same,heart rate of patients with asymptomatic bradycardia,"individuals with PD; NR group, 3000 mg daily, individual patients",58 beats/min and 46 beats/min
same,Diastolic blood pressure,individuals with PD; [2],74.7 ± 8.49 mmHg
same,Pulse,individuals with PD; [2],64.2 ± 14.67 min⁻¹
same,Systolic blood pressure,individuals with PD; [2],122.1 ± 12.53 mmHg
same,Weight,individuals with PD; [2],79.38 ± 11.92 kg
same,Diastolic blood pressure,individuals with PD; [3],76.2 ± 6.81 mmHg
same,Pulse,individuals with PD; [3],61.1 ± 12.95 min⁻¹
same,Systolic blood pressure,individuals with PD; [3],122.2 ± 7.49 mmHg
same,Weight,individuals with PD; [3],79.38 ± 11.79 kg
same,"Diastolic blood pressure, Δ","individuals with PD; Δ=V7−V1, NR 3000 mg daily, ±sd",1.5 ± 8.31 mmHg
same,"Pulse, Δ","individuals with PD; Δ=V7−V1, NR 3000 mg daily, ±sd",-3.1 ± 9.48 min⁻¹
same,"Systolic blood pressure, Δ","individuals with PD; Δ=V7−V1, NR 3000 mg daily, ±sd",0.1 ± 8.29 mmHg
same,"Weight, Δ","individuals with PD; Δ=V7−V1, NR 3000 mg daily, ±sd",0 ± 0.58 kg
same,"clinical symptoms of PD, measured by MDS-UPDRS","Parkinson's Disease (PD); NR 3000 mg daily, 4 weeks",significantly improved clinical symptoms of PD
same,Hoehn & Yahr score,Parkinson's Disease (PD); [2],2 ± 0.66
same,MDS-UPDRS Part I,Parkinson's Disease (PD); [2],7.8 ± 5.37
same,MDS-UPDRS Part II,Parkinson's Disease (PD); [2],9.4 ± 6.25
same,MDS-UPDRS Part III,Parkinson's Disease (PD); [2],29.7±12.85
same,MDS-UPDRS Part IV,Parkinson's Disease (PD); [2],4.1 ± 4.88
same,Total MDS-UPDRS,Parkinson's Disease (PD); [2],51±21.28
same,"total MDS-UPDRS, subgroup","Parkinson's Disease (PD); V1, subgroup of 8 participants with similar intervals since last levodopa dose, NR 3000 mg daily",46.62±17.76
same,Hoehn & Yahr score,Parkinson's Disease (PD); [3],2.1 ± 0.31
same,MDS-UPDRS Part I,Parkinson's Disease (PD); [3],5.6 ± 5.01
same,MDS-UPDRS Part II,Parkinson's Disease (PD); [3],8.8 ± 7.58
same,MDS-UPDRS Part III,Parkinson's Disease (PD); [3],22.7±7.55
same,MDS-UPDRS Part IV,Parkinson's Disease (PD); [3],3.2 ± 3.15
same,Total MDS-UPDRS,Parkinson's Disease (PD); [3],40.3±17.1
same,"total MDS-UPDRS, subgroup","Parkinson's Disease (PD); V7, subgroup of 8 participants with similar intervals since last levodopa dose, NR 3000 mg daily",35.75±11.74
same,"total MDS-UPDRS mean change, subgroup","Parkinson's Disease (PD); V7−V1, subgroup of 8 participants with similar intervals since last levodopa dose, NR 3000 mg daily",−10.87±11.15
same,"Hoehn & Yahr score, Δ","Parkinson's Disease (PD); Δ=V7−V1, NR 3000 mg daily, ±sd",0.1 ± 0.56
same,"MDS-UPDRS Part I, Δ","Parkinson's Disease (PD); Δ=V7−V1, NR 3000 mg daily, ±sd",−2.2 ± 3.52
same,"MDS-UPDRS Part II, Δ","Parkinson's Disease (PD); Δ=V7−V1, NR 3000 mg daily, ±sd",−0.6 ± 2.36
same,"MDS-UPDRS Part III, Δ","Parkinson's Disease (PD); Δ=V7−V1, NR 3000 mg daily, ±sd",−7 ± 7.98
same,"MDS-UPDRS Part IV, Δ","Parkinson's Disease (PD); Δ=V7−V1, NR 3000 mg daily, ±sd",−0.9 ± 2.60
same,"Total MDS-UPDRS, Δ (mean change)","Parkinson's Disease (PD); Δ=V7−V1, NR 3000 mg daily, ±sd",−10.7±9.94
same,effect size (ES) of NRRP expression increase vs placebo,[1]; 1000 mg NR,0.883
same,increase in NRRP expression (mean±SD),"[1]; 1000 mg NR, NR treatment group",0.68±0.86
same,effect of NRRP expression change on PD cerebral metabolic pattern,"[1]; NR group, 1000 mg daily, FDG-PET",partial normalization of the striatal and thalamic hypermetabolism
